Reference: patent publication US20070122395A1, “Genetic and pharmacological regulation of antidepressant-sensitive biogenic amine transporters through PKG/p38 map kinase” (Vanderbilt University, priority 2005, published 2007)

Assays:
[1] = tested on: hSERT; assay: in situ SERT phosphorylation in [32P]-prelabeled transfected HeLa cells; format: cell-based, human; conditions: 8BrcGMP 100 μM, 60 min
[2] = tested on: hSERT variants Leu255Met, Ser293Phe, Pro339Leu, Leu362Met, Ile425Val; assay: 5-HT transport regulation in transfected HeLa cells, responsive variants; format: cell-based, human
Experimental: (§1) Transfection and Transport Studies. HeLa cells, maintained at 37° C. in a 5% CO2 humidified incubator, were grown in complete medium (Dulbecco's Modified Eagle's Medium (DMEM, Invitrogen), 10% fetal bovine serum, 2 mM L-glutamine, 100 units/ml penicillin, and 100 μg/ml streptomycin).
(§2) Transport, Binding, Biotinylation and Phosphorylation Studies. […] To establish levels and biosynthetic progression of hSERT protein produced from mutant cDNAs, HeLa cells were plated in 6-well dishes at 500,000 cells per well and transfected 12 h later. Twenty four hours after transfection, whole cell detergent extracts were blotted for hSERT (mAb Technologies, Inc., 1:1000) using enhanced chemiluminescence (ECL, Amersham) detection.

[3] = target: T1, hSERT (Homo sapiens, UniProt P31645); assay: [125I]RTI-55 binding to intact transfected HeLa cells (surface and total SERT); format: cell-based
T1 construct: The full-length cDNA encoding hSERT in the mammalian expression vector pcDNA3.1; expressed in transfected cells; host or cells: HeLa
T1 sequence (P31645 whole entry): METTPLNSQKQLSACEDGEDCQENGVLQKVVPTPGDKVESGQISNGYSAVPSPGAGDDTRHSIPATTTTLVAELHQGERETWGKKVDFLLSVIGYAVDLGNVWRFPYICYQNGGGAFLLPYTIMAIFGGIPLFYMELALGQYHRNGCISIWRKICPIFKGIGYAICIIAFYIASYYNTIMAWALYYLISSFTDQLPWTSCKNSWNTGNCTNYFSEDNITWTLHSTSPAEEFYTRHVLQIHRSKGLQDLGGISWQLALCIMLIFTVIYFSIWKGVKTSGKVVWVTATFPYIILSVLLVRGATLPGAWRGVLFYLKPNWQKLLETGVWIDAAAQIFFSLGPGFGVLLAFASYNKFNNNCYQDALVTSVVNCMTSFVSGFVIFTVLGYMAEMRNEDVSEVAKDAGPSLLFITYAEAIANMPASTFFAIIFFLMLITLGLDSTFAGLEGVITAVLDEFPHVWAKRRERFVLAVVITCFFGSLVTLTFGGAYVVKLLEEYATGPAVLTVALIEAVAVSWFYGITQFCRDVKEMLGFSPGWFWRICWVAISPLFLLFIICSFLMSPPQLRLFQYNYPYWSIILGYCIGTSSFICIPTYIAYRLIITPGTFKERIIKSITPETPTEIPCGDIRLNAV

[4] = tested on: five hSERT variants that failed to elicit uptake increases; assay: [125I]RTI-55 surface binding to intact transfected HeLa cells, non-responsive variants; format: cell-based, human; conditions: five non-responsive variants
[5] = target: T1, hSERT; assay: [3H]5-HT transport (SERT uptake) assay in transfected HeLa cells; format: cell-based
Experimental: as §1, §2

[6] = tested on: hSERT variants Thr4Ala, Gly56Ala, Glu215Lys, Lys605Asn, Pro621Ser; assay: 5-HT transport regulation in transfected HeLa cells, non-responsive variants; format: cell-based, human
Experimental: as §1, §2

[7] = tested on: Gly56Ala heterozygous lymphocytes; assay: 5-HT uptake in genotyped lymphocyte lines; format: cell-based, human; conditions: Gly56Ala heterozygous cells
Description: (§3) Genotyping and Lymphocyte Studies. Lymphocyte lines were derived from autistic pedigrees recruited by Susan E. Folstein (Johns Hopkins Univ), from the Autism Genetics Resource Exchange (AGRE) collection (www.agre.org/), and from the NIMH Human Genetics Initiative Repository (www.nimhgenetics.org/) at Rutgers University. DNA from lymphoblastoid cell lines was genotyped via TaqMan-based allelic discrimination, using an Applied Biosystems (Foster City, Calif.) Assay-by-Design and independently confirmed by PCR and direct sequence analysis. […] Lymphocyte were pelleted at 1500 rpm, 5 min and washed with KRH assay buffer. A total of 1×10^6 cells in triplicate were pre-warmed (37° C.) in a shaking water bath (10 min) in 12×75 polypropylene tubes in KRH buffer containing 100 μM pargyline and 100 μM ascorbic acid+/−modifiers.

[8] = tested on: lymphocytes homozygous for the Gly variant (hSERT Gly56); assay: 5-HT uptake in genotyped lymphocyte lines; format: cell-based, human; conditions: Gly56 homozygous lymphocytes
Description: as §3

[9] = tested on: Ala56 homozygous lymphocyte lines; assay: 5-HT uptake in genotyped lymphocyte lines; format: cell-based, human
Description: as §3

[10] = target: T2, native SERT in RN46A cells (Rattus norvegicus, UniProt P31652); assay: [3H]5-HT transport assay in RN46A cells; format: cell-based; conditions: RN46A, 10 min treatment
T2 construct: derived from rat E13 raphenucleus, that expresses native SERT; endogenous in cells; host or cells: RN46A cells
T2 sequence (P31652 whole entry): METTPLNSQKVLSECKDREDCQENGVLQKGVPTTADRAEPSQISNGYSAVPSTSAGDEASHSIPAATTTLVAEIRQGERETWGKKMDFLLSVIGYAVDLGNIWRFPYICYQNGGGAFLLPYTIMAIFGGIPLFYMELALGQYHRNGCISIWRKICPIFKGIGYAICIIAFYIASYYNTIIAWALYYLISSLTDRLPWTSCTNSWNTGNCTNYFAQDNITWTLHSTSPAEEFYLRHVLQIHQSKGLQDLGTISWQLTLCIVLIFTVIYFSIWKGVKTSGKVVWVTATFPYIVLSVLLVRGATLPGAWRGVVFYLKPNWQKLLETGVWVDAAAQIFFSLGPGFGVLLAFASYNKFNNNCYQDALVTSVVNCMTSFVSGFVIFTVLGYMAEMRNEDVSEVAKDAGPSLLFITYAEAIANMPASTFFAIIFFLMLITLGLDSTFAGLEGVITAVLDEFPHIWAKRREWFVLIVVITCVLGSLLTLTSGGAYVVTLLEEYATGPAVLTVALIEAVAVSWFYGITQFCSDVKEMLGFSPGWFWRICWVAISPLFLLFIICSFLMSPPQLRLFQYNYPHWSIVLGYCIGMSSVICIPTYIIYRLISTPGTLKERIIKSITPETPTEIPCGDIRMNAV

[11] = tested on: hSERT variants that responded with uptake increases; assay: [125I]RTI-55 surface binding to intact transfected HeLa cells, responsive variants; format: cell-based, human
[12] = tested on: hSERT Gly56Ala; assay: in situ SERT phosphorylation in [32P]-prelabeled transfected HeLa cells; format: cell-based, human
[13] = tested on: p38 MAPK; format: cell-based, rat
Experimental: Assays of p38 MAPK Activation. […] Medium was removed by aspiration, and cells were washed once with KRH buffer and then incubated in triplicate at 37° C. in KRH buffer with or without p38 MAPK activators for 5-10 min. Assay buffer was removed, and cells were immediately fixed with fresh 4% formaldehyde (Sigma) in PBS for 20 min at room temperature and washed four times with 1×PBS containing 0.1% Triton X-100 (Sigma) (5 min per wash) prior to 1 h of blocking with Odyssey blocking buffer (Li-Cor Biosciences, Lincoln, Nebr.). RBL-2H3 cells were subsequently probed with dual phosphorylated (Thr(P) and Tyr(P)) p38 MAPK polyclonal antibody (Cell Signaling; 1:400) in Odyssey blocking buffer with gentle mixing for 2 h at room temperature. Cells were then washed four times with 1×PBS containing 0.1% Tween 20 (Sigma) for 5 min. Bound antibody was detected with fluorescence-labeled secondary antibody-Alexa Fluor® 680 (avoiding exposure to light; 1:200 in Odyssey Blocking Buffer, Molecular Probes, Inc., Eugene, Oreg.) for 1 h. After four washes with 1×PBS, 0.1% Tween 20, the plate was scanned, and the captured image of the signal was processed and quantified with the Odyssey™ Infrared Imaging System (Li-Cor Biosciences). For UV radiation to activate p38 MAPK, plates seeded with cells were placed in a UV source (UV Stratalinker 1800, Stratagene, La Jolla, Calif.) that was preset to deliver 4×10^4 μJ/cm^2 at room temperature.

[14] = tested on: hDAT; assay: monoamine uptake assay in transfected CHO cells; format: cell-based, human; conditions: 10-min anisomycin
Experimental: (§4) Cell Culture and Transfection. […] Cells were cultured for 24 h after transfection. The transfection mixture was removed just prior to assay.

[15] = tested on: mSERT; assay: monoamine uptake assay in transfected CHO cells; format: cell-based, mouse; conditions: 10-min anisomycin
Experimental: as §4

[16] = tested on: human NET; assay: monoamine uptake assay in transfected CHO cells; format: cell-based; conditions: CHO cells, 10-min anisomycin
Experimental: Cell Culture and Transfection. […] CHO cells (ATCC, Manassas, Va.) were maintained at 37° C. in Dulbecco's MEM containing 10% fetal bovine serum, 1% L-Glu, 100 IU/ml penicillin, and 100 μg/ml streptomycin. For comparison of the response of monoamine transporters to p38 MAPK activation, CHO cells were transfected with cDNAs for hSERT, hDAT, or hNET (100 ng/well for a 24-well plate). Transfections of CHO cells were performed using TransIT-LT1 Transfection Reagent (Mirus, Madison, Wis.) according to the manufacturer's protocol (0.3 μl/well). hSERT, hDAT, or hNET cDNAs were preincubated with the reagent at ambient temperature for 30 min before being added to plated CHO cells. Cells were cultured for 24 h after transfection. The transfection mixture was removed just prior to assay.
CHO cells were plated at 20,000 cells/well 16-24 h before transfection, and the uptake assay was performed 24 h following the transfection. […] Medium was removed by aspiration, and cells were washed once with Krebs-Ringer HEPES (KRH) buffer containing 130 mM NaCl, 1.3 mM KCl, 2.2 mM CaCl2, 1.2 mM MgSO4, 1.2 mM KH2PO4, 1.8 g/liter glucose, 10 mM HEPES, pH 7.4. […] Cells were solubilized with 0.5 ml of Microscint 20 (PerkinElmer Life Sciences), and tritium-labeled monoamine accumulation was quantitated using a TopCount plate scintillation counter (PerkinElmer Life Sciences).

| Structure (SMILES) | elevation of basal SERT phosphorylation [1] [%] | 8BrcGMP effect on SERT activity [2] | [125I]RTI-55 surface binding after 8BrcGMP ([3]; 100 μM 8BrcGMP, 5-HT 100 μM as displacer) | total [125I]RTI-55 binding ([3]; paroxetine as displacer, data not shown) | [125I]RTI-55 surface binding after 8BrcGMP [4] | stimulation of 5-HT transport activity (peak increase) [5] | 8BrcGMP effect on SERT activity [6] | sensitivity of 5-HT uptake to activator [7] | stimulation of 5-HT transport [8] | sensitivity of 5-HT uptake to activator [9] | stimulation of 5-HT transport [10] | [125I]RTI-55 surface binding after 8BrcGMP [11] | SERT phosphorylation response to 8BrcGMP [12] | increase in phosphorylated p38 MAPK ([13]; 0.5 and 1.0 μm, 5 min) | level of p38 MAPK phosphorylation stimulation ([13]; 5 min treatment) | total p38 MAPK levels ([13]; data not shown) | anisomycin-modulated DA uptake [14] | anisomycin-modulated 5-HT uptake [15] | anisomycin-modulated NE uptake (NET activity) [16] |
| --- | --- | --- | --- | --- | --- | --- | --- | --- | --- | --- | --- | --- | --- | --- | --- | --- | --- | --- | --- |
| Nc1nc2c(nc(Br)n2[C@@H]2O[C@@H]3COP(=O)(O)O[C@H]3[C@H]2O)c(=O)[nH]1 [8BrcGMP, 8-bromo-cGMP] | ~80 | dose-dependent, H8-sensitive stimulation of SERT activity comparable to hSERT | Parallel changes in [^125I]RTI-55 surface binding | no effects on total binding | reduction in [^125I]RTI-55 surface binding | 50-70% | completely insensitive | intermediate sensitivity | robust 8BrcGMP stimulation of 5-HT transport | lacked sensitivity | increase in 5-HT transport | elevated [^125I]RTI-55 surface binding | could not be further phosphorylated | – | – | – | – | – | – |
| COc1ccc(C[C@H]2NC[C@H](O)[C@H]2OC(C)=O)cc1 [anisomycin] | – | – | – | – | – | – | – | – | – | – | – | – | – | 2-3 fold | comparable to stimulation achieved with 8-bromo-cGMP | No changes | small, but significant SB203580-sensitive inhibition of DA uptake | SB203580-sensitive elevation in 5-HT uptake | stimulated to a comparable degree as hSERT |
